IC50 data for 5 compounds are collected here from BindingDB's records for doi:10.1016/s0960-894x(03)00664-4 (Eli Lilly, 2003).

The target in this test is Acetyl-CoA carboxylase 1 (Rattus norvegicus, UniProt P11497). Briefly: Inhibitory concentration against rat heart ACC by the carboxylation of acetyl-CoA with [14C]-HCO3- to form [14C]-malonyl CoA; 18-40 uM.

In the case of `CCC/C(=N\OCC)C1C(=O)CC(C2CCCSC2)CC1=O` (stereo not given) [2-{1-[(E)-Ethoxyimino]-butyl}-3-hydroxy-5-(tetrahydro-thiopyran-3-yl)-cyclohex-2-enone], the IC50 came to 40 µM.

The compound `CC/C(=N\OC/C=C/Cl)C1C(=O)CC(C2CCOCC2)CC1=O` (stereo not given) [2-{1-[(E)-(E)-3-Chloro-allyloxyimino]-propyl}-3-hydroxy-5-(tetrahydro-pyran-4-yl)-cyclohex-2-enone] gave an IC50 of 40 µM.

`CCSC(C)CC1CC(=O)C(/C(CC)=N/OC/C=C/Cl)C(=O)C1` (stereo not given) [clethodim] registered an IC50 of 40 µM. On to `CCO/N=C(\CC)C1C(=O)CC(c2c(C)cc(C)cc2C)CC1=O` (stereo not given) [2-{1-[(E)-Ethoxyimino]-propyl}-3-hydroxy-5-(2,4,6-trimethyl-phenyl)-cyclohex-2-enone], for which the IC50 was 40 µM.

On to `CCC/C(=N\OCC)C1C(=O)CC(CC(C)SCC)CC1=O` (stereo not given) [2-{1-[(E)-Ethoxyimino]-butyl}-5-(2-ethylsulfanyl-propyl)-3-hydroxy-cyclohex-2-enone], for which the IC50 was determined as 40 µM.
